# In BindingDB's records for doi:10.1021/acs.jmedchem.5b01031 (Wayne State University, 2015):
# Experiments:
# D(2) dopamine receptor [1] = target: T1, D(2) dopamine receptor (Homo sapiens, UniProt P14416); test: Antagonist activity against human D2 receptor expressed in CHO cells assessed as dopamine EC50 at 1 uM by [35S]GTPgammaS binding assay (Rvb = 225 +/- 45 nM)
# D(2) dopamine receptor [2] = target: T1, D(2) dopamine receptor; test: Antagonist activity against human D2 receptor expressed in CHO cells assessed as dopamine EC50 at 200 nM by [35S]GTPgammaS binding assay (Rvb = 225 +/- 45 nM)
# T1 sequence (P14416 whole entry): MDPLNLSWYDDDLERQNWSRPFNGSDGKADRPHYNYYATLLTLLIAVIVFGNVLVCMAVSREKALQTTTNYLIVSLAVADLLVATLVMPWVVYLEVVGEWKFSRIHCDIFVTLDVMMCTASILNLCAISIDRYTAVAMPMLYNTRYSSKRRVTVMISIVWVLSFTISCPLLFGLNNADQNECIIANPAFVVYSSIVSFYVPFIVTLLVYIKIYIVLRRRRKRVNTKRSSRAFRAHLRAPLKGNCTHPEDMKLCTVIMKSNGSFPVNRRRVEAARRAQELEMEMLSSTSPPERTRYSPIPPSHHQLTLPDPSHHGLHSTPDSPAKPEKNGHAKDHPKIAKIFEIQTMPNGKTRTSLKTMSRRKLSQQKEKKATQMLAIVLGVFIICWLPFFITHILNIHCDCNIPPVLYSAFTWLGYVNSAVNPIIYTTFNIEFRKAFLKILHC
smiles,measurement,setting,value
CCCN1CCC[C@@H](c2cccc(O)c2)C1 [Preclamol],EC50,D(2) dopamine receptor [1],844 nM
same,EC50,D(2) dopamine receptor [2],376 nM
